Results reported in the NIST ThermoML archive (doi:10.1016/j.jct.2015.07.042).
± gives the expanded uncertainty stated by the source.

Experiment: activity coefficient (dimensionless); of the first substance listed, at infinite dilution; xn = mol fraction of the nth substance listed
Conditions: 101 kPa, Liquid, Chromatography, x1 = 0

O [water] + CCCCn1cc[n+](C)c1.[Cl-]
activity coefficient (398.15 K): 0.07 ± 0.03
activity coefficient (408.15 K): 0.077 ± 0.03
activity coefficient (418.15 K): 0.085 ± 0.03
activity coefficient (428.15 K): 0.094 ± 0.03

O [water] + CCCCn1cc[n+](C)c1.COP(=O)([O-])OC
activity coefficient (398.15 K): 0.073 ± 0.03
activity coefficient (408.15 K): 0.081 ± 0.03
activity coefficient (418.15 K): 0.092 ± 0.03
activity coefficient (428.15 K): 0.101 ± 0.03

C1=CCCCC1 [cyclohexene] + CCCCn1cc[n+](C)c1.CS(=O)(=O)[O-]
activity coefficient (358.15 K): 18.4 ± 1.3
activity coefficient (368.15 K): 18.6 ± 1.3
activity coefficient (378.15 K): 18.7 ± 1.3
activity coefficient (388.15 K): 19 ± 1.3

C=COC(C)=O [vinyl acetate] + CCCCn1cc[n+](C)c1.CS(=O)(=O)[O-]
activity coefficient (358.15 K): 3.47 ± 0.24
activity coefficient (368.15 K): 3.58 ± 0.24
activity coefficient (378.15 K): 3.76 ± 0.26
activity coefficient (388.15 K): 3.92 ± 0.27

CCCCO [butan-1-ol] + CCCCn1cc[n+](C)c1.COP(=O)([O-])OC
activity coefficient (398.15 K): 0.247 ± 0.03
activity coefficient (408.15 K): 0.271 ± 0.03
activity coefficient (418.15 K): 0.299 ± 0.031
activity coefficient (428.15 K): 0.324 ± 0.032

C#CCCCCCC [1-octyne] + CCCCn1cc[n+](C)c1.COP(=O)([O-])OC
activity coefficient (358.15 K): 6.04 ± 0.41
activity coefficient (368.15 K): 6.22 ± 0.42
activity coefficient (378.15 K): 6.48 ± 0.44
activity coefficient (388.15 K): 6.74 ± 0.46

CCCOCCC [dipropyl ether] + CCCCn1cc[n+](C)c1.[Cl-]
activity coefficient (358.15 K): 57.4 ± 3.9
activity coefficient (368.15 K): 55.3 ± 3.8
activity coefficient (378.15 K): 52.8 ± 3.6
activity coefficient (388.15 K): 51.9 ± 3.6

c1ccsc1 [thiophene] + CCCCn1cc[n+](C)c1.CS(=O)(=O)[O-]
activity coefficient (358.15 K): 1.72 ± 0.12
activity coefficient (368.15 K): 1.81 ± 0.12
activity coefficient (378.15 K): 1.94 ± 0.13
activity coefficient (388.15 K): 2.05 ± 0.14

c1ccncc1 [pyridine] + CCCCn1cc[n+](C)c1.[Cl-]
activity coefficient (358.15 K): 1.47 ± 0.1
activity coefficient (368.15 K): 1.55 ± 0.1
activity coefficient (378.15 K): 1.64 ± 0.11
activity coefficient (388.15 K): 1.78 ± 0.12

CC1CCCCC1 [methylcyclohexane] + CCCCn1cc[n+](C)c1.[Cl-]
activity coefficient (358.15 K): 84.2 ± 5.8
activity coefficient (368.15 K): 79 ± 5.4
activity coefficient (378.15 K): 73 ± 5
activity coefficient (388.15 K): 69.8 ± 4.8

C1CCCCCC1 [cycloheptane] + CCCCn1cc[n+](C)c1.CS(=O)(=O)[O-]
activity coefficient (358.15 K): 44.2 ± 3
activity coefficient (368.15 K): 43.3 ± 3
activity coefficient (378.15 K): 42.6 ± 2.9
activity coefficient (388.15 K): 42.2 ± 2.9

CC#N [acetonitrile] + CCCCn1cc[n+](C)c1.CS(=O)(=O)[O-]
activity coefficient (358.15 K): 0.99 ± 0.06
activity coefficient (368.15 K): 1.03 ± 0.06
activity coefficient (378.15 K): 1.08 ± 0.07
activity coefficient (388.15 K): 1.12 ± 0.07

CC#N [acetonitrile] + CCCCn1cc[n+](C)c1.[Cl-]
activity coefficient (358.15 K): 1.12 ± 0.07
activity coefficient (368.15 K): 1.16 ± 0.07
activity coefficient (378.15 K): 1.21 ± 0.08
activity coefficient (388.15 K): 1.28 ± 0.08

C=CCCCCC [1-heptene] + CCCCn1cc[n+](C)c1.[Cl-]
activity coefficient (358.15 K): 88.9 ± 6.1
activity coefficient (368.15 K): 83.8 ± 5.7
activity coefficient (378.15 K): 79.3 ± 5.4
activity coefficient (388.15 K): 77.2 ± 5.3

CCOC(C)=O [ethyl acetate] + CCCCn1cc[n+](C)c1.CS(=O)(=O)[O-]
activity coefficient (358.15 K): 4.76 ± 0.32
activity coefficient (368.15 K): 4.88 ± 0.33
activity coefficient (378.15 K): 5 ± 0.34
activity coefficient (388.15 K): 5.28 ± 0.36

COC(C)=O [methyl ethanoate] + CCCCn1cc[n+](C)c1.COP(=O)([O-])OC
activity coefficient (358.15 K): 2.58 ± 0.18
activity coefficient (368.15 K): 2.65 ± 0.18
activity coefficient (378.15 K): 2.73 ± 0.19
activity coefficient (388.15 K): 2.85 ± 0.19

C=CCCCC [hex-1-ene] + CCCCn1cc[n+](C)c1.COP(=O)([O-])OC
activity coefficient (358.15 K): 13.9 ± 0.95
activity coefficient (368.15 K): 13.7 ± 0.94
activity coefficient (378.15 K): 13.4 ± 0.91
activity coefficient (388.15 K): 13.2 ± 0.9

CCCCCCCC [octane] + CCCCn1cc[n+](C)c1.CS(=O)(=O)[O-]
activity coefficient (358.15 K): 171 ± 12
activity coefficient (368.15 K): 165 ± 11
activity coefficient (378.15 K): 160 ± 11
activity coefficient (388.15 K): 155 ± 11

CCCCO [butan-1-ol] + CCCCn1cc[n+](C)c1.CS(=O)(=O)[O-]
activity coefficient (398.15 K): 0.937 ± 0.059
activity coefficient (408.15 K): 0.984 ± 0.062
activity coefficient (418.15 K): 1.02 ± 0.064
activity coefficient (428.15 K): 1.07 ± 0.068

CC(C)CO [2-methyl-1-propanol] + CCCCn1cc[n+](C)c1.COP(=O)([O-])OC
activity coefficient (398.15 K): 0.23 ± 0.029
activity coefficient (408.15 K): 0.254 ± 0.03
activity coefficient (418.15 K): 0.281 ± 0.03
activity coefficient (428.15 K): 0.313 ± 0.031

C=COC(C)=O [vinyl acetate] + CCCCn1cc[n+](C)c1.COP(=O)([O-])OC
activity coefficient (358.15 K): 2.79 ± 0.19
activity coefficient (368.15 K): 2.88 ± 0.2
activity coefficient (378.15 K): 2.99 ± 0.2
activity coefficient (388.15 K): 3.13 ± 0.21

CC(C)OC(C)C [diisopropyl ether] + CCCCn1cc[n+](C)c1.[Cl-]
activity coefficient (358.15 K): 78.5 ± 5.4
activity coefficient (368.15 K): 71.7 ± 4.9
activity coefficient (378.15 K): 64 ± 4.4
activity coefficient (388.15 K): 59.1 ± 4

CO [methanol] + CCCCn1cc[n+](C)c1.COP(=O)([O-])OC
activity coefficient (398.15 K): 0.097 ± 0.03
activity coefficient (408.15 K): 0.105 ± 0.03
activity coefficient (418.15 K): 0.115 ± 0.03
activity coefficient (428.15 K): 0.125 ± 0.03

C=CCCCCCC [oct-1-ene] + CCCCn1cc[n+](C)c1.COP(=O)([O-])OC
activity coefficient (358.15 K): 27.5 ± 1.9
activity coefficient (368.15 K): 26.9 ± 1.8
activity coefficient (378.15 K): 26.5 ± 1.8
activity coefficient (388.15 K): 26.2 ± 1.8

Cc1ccccc1 [toluene] + CCCCn1cc[n+](C)c1.CS(=O)(=O)[O-]
activity coefficient (358.15 K): 5.32 ± 0.36
activity coefficient (368.15 K): 5.45 ± 0.37
activity coefficient (378.15 K): 5.68 ± 0.39
activity coefficient (388.15 K): 5.84 ± 0.4

C1CCCCC1 [cyclohexane] + CCCCn1cc[n+](C)c1.[Cl-]
activity coefficient (358.15 K): 84.2 ± 5.8
activity coefficient (368.15 K): 79 ± 5.4
activity coefficient (378.15 K): 73 ± 5
activity coefficient (388.15 K): 69.8 ± 4.8

C=CCCCCC [1-heptene] + CCCCn1cc[n+](C)c1.CS(=O)(=O)[O-]
activity coefficient (358.15 K): 59.2 ± 4.1
activity coefficient (368.15 K): 58.9 ± 4
activity coefficient (378.15 K): 58.7 ± 4
activity coefficient (388.15 K): 58 ± 4

C1CCCCCCC1 [cyclooctane] + CCCCn1cc[n+](C)c1.CS(=O)(=O)[O-]
activity coefficient (358.15 K): 57.1 ± 3.9
activity coefficient (368.15 K): 55.7 ± 3.8
activity coefficient (378.15 K): 54.4 ± 3.7
activity coefficient (388.15 K): 53.6 ± 3.7

CCOC(C)(C)C [2-ethoxy-2-methylpropane] + CCCCn1cc[n+](C)c1.[Cl-]
activity coefficient (358.15 K): 64.8 ± 4.4
activity coefficient (368.15 K): 59.3 ± 4.1
activity coefficient (378.15 K): 55.7 ± 3.8
activity coefficient (388.15 K): 53.3 ± 3.6

C#CCCCC [1-hexyne] + CCCCn1cc[n+](C)c1.[Cl-]
activity coefficient (358.15 K): 7.33 ± 0.5
activity coefficient (368.15 K): 7.85 ± 0.54
activity coefficient (378.15 K): 8.19 ± 0.56
activity coefficient (388.15 K): 8.61 ± 0.59

C=CCCCCC [1-heptene] + CCCCn1cc[n+](C)c1.COP(=O)([O-])OC
activity coefficient (358.15 K): 19.6 ± 1.3
activity coefficient (368.15 K): 19.4 ± 1.3
activity coefficient (378.15 K): 19.1 ± 1.3
activity coefficient (388.15 K): 18.9 ± 1.3

C1CCCC1 [cyclopentane] + CCCCn1cc[n+](C)c1.CS(=O)(=O)[O-]
activity coefficient (358.15 K): 23.9 ± 1.6
activity coefficient (368.15 K): 23.7 ± 1.6
activity coefficient (378.15 K): 23.5 ± 1.6
activity coefficient (388.15 K): 23.3 ± 1.6

CC1CCCCC1 [methylcyclohexane] + CCCCn1cc[n+](C)c1.COP(=O)([O-])OC
activity coefficient (358.15 K): 17.4 ± 1.2
activity coefficient (368.15 K): 16.8 ± 1.1
activity coefficient (378.15 K): 16.4 ± 1.1
activity coefficient (388.15 K): 16.1 ± 1.1

CC(C)CO [2-methyl-1-propanol] + CCCCn1cc[n+](C)c1.[Cl-]
activity coefficient (398.15 K): 0.54 ± 0.039
activity coefficient (408.15 K): 0.576 ± 0.041
activity coefficient (418.15 K): 0.615 ± 0.043
activity coefficient (428.15 K): 0.665 ± 0.045
